Measured values taken from US10126316B2, “Systems and methods for the measurement of tacrolimus in oral fluids by liquid chromatography tandem mass spectrometry” (Rhode Island Council on Postsecondary Education, Statutory …, priority 2016, dated 2018).

Key:
[1] = Tacrolimus concentration in oral fluid and whole blood of kidney transplant recipients by LC-MS/MS (Example 1 patient samples); assay type: in vivo, human
Protocol: The chromatographic conditions were optimized and the gradient elution described here provided the best separation of TAC and IS from suppressing phospholipid ions. Chromatographic separation was achieved using a mobile phase which consisted of water containing 2 mM ammonium acetate/0.1% (v/v) formic acid (solvent A); and MeOH containing 2 mM ammonium acetate/0.1% (v/v) formic acid (solvent B). The mobile phase was delivered at 0.4 mL/min flow rate. The run cycle started at 50% solvent (B) and increased gradually to 98% over 0.5 min and was maintained at this level until 1.8 min. To re-equilibrate the column for the next run, solvent (B) decreased within 0.1 min to 50% and remained at 50% until the end of the run at 2.2 minutes. The diversion valve was set to deliver the first 0.70 min and from 1.20 min until the end of each run to waste. The elution time of TAC and IS was 1.0 min.
Mass spectrometry detection and quantification of TAC and ASC was performed in positive electrospray ionization (ESI) and multiple reaction monitoring (MRM) modes. Intellistart tool was used to obtain initial mass spectrometry parameters in low mass resolution analysis mode followed by manual tuning to achieve highest possible sensitivity. Final mass spectrometry parameters were as following: collision energy (CE)=22 and 20 for ASC and TAC respectively, cone voltage (CV)=28, capillary voltage (kV)=1.50, source temperature (° C.)=150, cone gas flow (L/hr)=25, desolvation gas flow (L/hr)=1000, and collision gas flow (mL/min)=0.15. Ammonium adducts [M+NH4]^+ were selected as precursors for MRM with transitions (m/z, Q1→Q3) of (m/z, 809.30→756.30) and (m/z, 821.30→768.35) for ASC and TAC, respectively.
Study protocols were approved by Institutional Review Board at Rhode Island Hospital (Providence, R.I.). After giving informed consent, kidney transplant recipients attending kidney transplant clinics were recruited. […] All blood and OF samples were kept on ice until transferred to the Biomedical and Pharmaceutical Sciences (BPS) department at University of Rhode Island and stored at −80° C. until analyzed. […]

[2] = Tacrolimus concentration in paired oral fluid and blood samples, all samples of Example 2; assay type: in vivo, human
Text: Study population: Samples included in this study were collected during two clinical studies from stable kidney transplant recipients. Protocol for each clinical study was approved by the Institutional Review Board of Rhode Island Hospital (Providence, R.I.). On the study day, all patients underwent a physical examination by the study physician and were asked to sign an informed consent prior to sample collection. All patients were on a triple immunosuppressant regimen that included tacrolimus, prednisone, and mycophenolic acid. All blood and OF samples were kept on dry ice until transfer to the Clinical Pharmacokinetics Research Laboratory at the University of Rhode Island and subsequent storage at −80° C. until further analysis.
Upon thawing saliva samples, an aliquot of saliva was weighed with an analytical balance and the weight was recorded to establish the drug concentration as pg/mg weight. Moreover, the pH of saliva was measured by an Orion STAR A111 pH meter equipped with Micro Electrode from Thermo Scientific (Waltham, Mass., USA). To assess and quantify possible blood contamination of OF, a transferrin kit from Salimetrics LLC (State College, Pa., USA) was used (the validated assay range is ≤6.6 mg/dL). Transferrin (TRNs) is a plasma protein (Mw=76,000) that is used as a biomarker for presence of blood in OF. Transferrin quantification was performed using SpectraMax M5e Microplate Reader (Sunnyvale, Calif., USA).
(§1) Sample extraction was preformed mixing 200 μL of the blood sample with 800 μL of precipitating solution [ZnSO4 (17.28 g/L) in water and methanol (30:70, v/v) containing 100 ng/mL ascomycin as internal standard]. After vortex mixing, samples were centrifuged for 10 min at 13,000 rpm.
(§2) The concentration of tacrolimus in OF was measured using a validated LC-MS/MS method. […] TAC was eluted by gradient elution with 2 mM ammonium acetate/0.1 formic acid in water (mobile phase A) and in methanol (mobile phase B) at 0.4 mL/min flow rate. Initial mobile phase comprised of 50% solvent B, increased gradually to 98% over 0.5 min and maintained at this level until 1.8 min. Then mobile phase was returned to initial conditions within 10 s and maintained until the end of the run at 2.2 min to recondition the column for the next run. The elution time of TAC and internal standard was 1.0 min.
(§3) A simple sample preparation and extraction procedure was followed. Briefly, 50 μL of homogenized OF sample was added to 100 μL of ACN precipitating solvent containing internal standard (ascomycin, 600 ng/L). After vortex mixing for 10 s, the mixture was centrifuged at 10,000 g for 5 min at 20° C. The supernatant was then transferred to an auto-sampler vial, and 10 μL was injected onto LC-MS/MS. The dynamic range of the assay was 30-4,800 pg/mL. […] The lower limit of quantification (LLOQ) for the assay was set at […] Acceptance criteria for quality controls (QCs) included in the assay was accuracy between 85-115% and CV <15%. Selectivity was assessed by inspecting the presence of noise or peaks in chromatograms blank OF samples injections (from 6 donors) and a comparison with LLOQ chromatogram.

[3] = Study A: 12-hour profile of tacrolimus in oral fluid and blood; assay type: in vivo, human; conditions: for OF/blood Conc. (*100) / Tacrolimus Conc. in OF / Tacrolimus blood Conc.: geometric mean (95% CI)
Protocol: Study A. Characterization of 12-hour profile of tacrolimus in OFs: The objective of this study was to obtain parallel blood and saliva samples for 12 h after the morning dose tacrolimus. On the morning of the study day, a venous blood sample (about 4 mL) was collected in ethylenediaminetetraacetic acid (EDTA) coated tubes. Simultaneously, OF samples were collected by passive drool (resting) in a siliconized plastic cup. After the administration of morning dose of immunosuppressive agents including tacrolimus, serial samples were collected at certain time points post-dose for 12-hour. All patients fasted overnight but prior to the start of sample collection, took a protein bar with their morning medication together with a glass of water. Thus, the samples obtained in this study was regarded as samples collected at non-fasting state.
as §1, §2, §3

[4] = Study B: effect of oral fluid sample collection method on tacrolimus concentration; assay type: in vivo, human; conditions: geometric mean (95% CI)
Protocol: Study B. Characterization of the effect of OF sample collection method: Blood samples were collected at pre-dose (C0) and then at two-hour after dose (C2). Patients have arrived at the hospital after an overnight fast and were remained fasted during collection of C0 samples. Matching OF samples were collected within ±5 min from blood sample time by passive drool (resting sample), after mouth rinsing with water (rinsed sample), and immediately after taking a sour candy to stimulate saliva production (stimulated sample). For the following samples, patients were asked to place a small piece of a commercial candy containing citric and tartaric acids (Sour Patch Kids, Mondelēz International, East Hanover, N.J., USA) in their mouth for 10 s with continues tongue movement. After C0 samples collection, patients were given a voucher for breakfast and were asked to report back to the study location shortly before sample collection at two-hour after dose (C2). The same process of blood and corresponding OF sample collection was followed at this time. The C2 samples were regarded as fed state.
as §1, §2, §3

[5] = Stability studies of TAC in oral fluid QC samples; assay type: physicochemical, human; conditions: for Stability, % Accuracy, Bench top / Stability, % Accuracy, Short-term 1 weeks / Stability, % Accuracy, Short-term 4 weeks / Stability, % Accuracy, Freeze & thaw / Stability, % Accuracy, Auto-sampler 24 hrs / Stability, % Accuracy, Auto-sampler 48 hrs: N = 3; for Stability, % Accuracy, Short-term 1 weeks / Stability, % Accuracy, Short-term 4 weeks: storage at −80° C.; for Stability, % Accuracy, Freeze & thaw: three freeze and thaw cycles; for Stability, % Accuracy, Auto-sampler 24 hrs / Stability, % Accuracy, Auto-sampler 48 hrs: extracted
Protocol: Stability studies were performed by measuring TAC concentrations in QC1 and QC3, in three replicates. Freeze and thaw (after three freeze and thaw cycles), bench-top, auto-sampler (by re-injecting one of validation batch after it was left in the auto-sampler for 24 h and 48 h), and short-term stability up to one month were investigated.

[6] = cited from earlier work

In the case of `C=CC[C@@H]1/C=C(\C)C[C@H](C)C[C@H](OC)[C@H]2O[C@@](O)(C(=O)C(=O)N3CCCC[C@H]3C(=O)O[C@H](/C(C)=C/[C@@H]3CC[C@@H](O)[C@H](OC)C3)[C@H](C)[C@@H](O)CC1=O)[C@H](C)C[C@@H]2OC.O` [Tacrolimus], the “Concentration of TAC in OF (range)” value ([1]; 181 OF samples, stable transplant recipients) is reported as 0.0117 to 2.8644 ng/mL, the “Calculated concentration of the one OF sample lower than LLOQ” value ([1]; one of 181 OF samples) is reported as “around 8.5 pg/mL” and the “Concentration of TAC in whole blood (range)” value ([1]; stable transplant recipients) is reported as 1.7 to 46.1 ng/mL. For the same compound, the “Tacrolimus concentration in blood (mean±SD)” value ([2]; 276 paired samples) was 7.4 ± 5 ng/mL, the “Tacrolimus concentration in blood (median)” value ([2]; 276 paired samples) was 5.9 ng/mL and the “Concentration of tacrolimus in OFs (mean±SD)” value ([2]; homogenized OFs) was 0.744 ± 0.666 ng/mL. For the same compound, the “Concentration of tacrolimus in OFs (median)” value ([2]; homogenized OFs) was 0.505 ng/mL, the “Concentration of tacrolimus corrected for the weight of homogenized OF (mean±SD)” value ([2]; in vivo) was 540 ± 485 pg/mg and the “Concentration of tacrolimus corrected for the weight of homogenized OF (median)” value ([2]; in vivo) was 367 pg/mg. For the same compound, the “Concentration of TAC in blood” value ([3]; 80 paired samples, 10 patients, fed state) was 5.7 ± 2.6 ng/mL, the “Concentration of TAC in oral fluids” value ([3]; 80 paired samples, 10 patients, passive drool, fed state) was 0.885 ± 0.65 ng/mL and the “OF/blood Conc. (*100)” value ([3]; All other times) was 14 (11, 16). The “Tacrolimus Conc. in OF” value ([3]; All other times) was 783 (627, 878) pg/mL, the “Tacrolimus blood Conc.” value ([3]; All other times) was 5.5 (5.0, 5.9) ng/mL and the “OF/blood Conc. (*100)” value ([3]; Peak (C2)) was 11 (7, 16). For the same compound, the “Tacrolimus Conc. in OF” value ([3]; Peak (C2)) was 573 (411, 599) pg/mL, the “Tacrolimus blood Conc.” value ([3]; Peak (C2)) was 5.5 (4.6, 6.5) ng/mL and the “OF/blood Conc. (*100)” value ([3]; Trough (C0, incl. C12)) was 11 (7, 18). The “Tacrolimus Conc. in OF” value ([3]; Trough (C0, incl. C12)) was 430 (272, 680) pg/mL, the “Tacrolimus blood Conc.” value ([3]; Trough (C0, incl. C12)) was 3.8 (3.1, 4.7) ng/mL and the “OF/blood Conc. (*100)” value ([4]; C0 (fasted), Resting) was 19 (14, 24). For the same compound, the “Tacrolimus Conc. in OF” value ([4]; C0 (fasted), Resting) was 1003 (747, 1348) pg/mL, the “Tacrolimus blood Conc.” value ([4]; C0 (fasted), Resting) was 5.5 (4.7, 6.3) ng/mL and the “OF/blood Conc. (*100)” value ([4]; C0 (fasted), Rinsed) was 11 (9, 13). For the same compound, the “Tacrolimus Conc. in OF” value ([4]; C0 (fasted), Rinsed) was 584 (436, 782) pg/mL, the “Tacrolimus blood Conc.” value ([4]; C0 (fasted), Rinsed) was 5.4 (4.7, 6.3) ng/mL and the “OF/blood Conc. (*100)” value ([4]; C0 (fasted), Stimulated) was 3 (2, 4). The “Tacrolimus Conc. in OF” value ([4]; C0 (fasted), Stimulated) was 164 (119, 226) pg/mL, the “Tacrolimus blood Conc.” value ([4]; C0 (fasted), Stimulated) was 5.5 (4.8, 6.2) ng/mL and the “OF/blood Conc. (*100)” value ([4]; C2 (fed), Resting) was 7 (5, 9). The “Tacrolimus Conc. in OF” value ([4]; C2 (fed), Resting) was 635 (437, 923) pg/mL, the “Tacrolimus blood Conc.” value ([4]; C2 (fed), Resting) was 9.4 (7.6, 11.7) ng/mL and the “OF/blood Conc. (*100)” value ([4]; C2 (fed), Rinsed) was 5 (4, 7). For the same compound, the “Tacrolimus Conc. in OF” value ([4]; C2 (fed), Rinsed) was 468 (347, 630) pg/mL, the “Tacrolimus blood Conc.” value ([4]; C2 (fed), Rinsed) was 9.0 (7.4, 11.0) ng/mL and the “OF/blood Conc. (*100)” value ([4]; C2 (fed), Stimulated) was 3 (2, 4). The “Tacrolimus Conc. in OF” value ([4]; C2 (fed), Stimulated) was 235 (167, 330) pg/mL, the “Tacrolimus blood Conc.” value ([4]; C2 (fed), Stimulated) was 8.8 (7.6, 10.2) ng/mL and the “Stability, % Accuracy, Bench top” value ([5]; QC1 (30 pg/mL) in OF) was 111.1%. The “Stability, % Accuracy, Short-term 1 weeks” value ([5]; QC1 (30 pg/mL) in OF) was 98.4%, the “Stability, % Accuracy, Short-term 4 weeks” value ([5]; QC1 (30 pg/mL) in OF) was 100.8% and the “Stability, % Accuracy, Freeze & thaw” value ([5]; QC1 (30 pg/mL) in OF) was 108.2%. For the same compound, the “Stability, % Accuracy, Auto-sampler 24 hrs” value ([5]; QC1 (30 pg/mL)) was 105.3%, the “Stability, % Accuracy, Auto-sampler 48 hrs” value ([5]; QC1 (30 pg/mL)) was 102.5% and the “Stability, % Accuracy, Bench top” value ([5]; QC3 (1200 pg/mL) in OF) was 98.8%. For the same compound, the “Stability, % Accuracy, Short-term 1 weeks” value ([5]; QC3 (1200 pg/mL) in OF) was 98.9%, the “Stability, % Accuracy, Short-term 4 weeks” value ([5]; QC3 (1200 pg/mL) in OF) was 102.9% and the “Stability, % Accuracy, Freeze & thaw” value ([5]; QC3 (1200 pg/mL) in OF) was 111.9%. The “Stability, % Accuracy, Auto-sampler 24 hrs” value ([5]; QC3 (1200 pg/mL)) was 102.2%, the “Stability, % Accuracy, Auto-sampler 48 hrs” value ([5]; QC3 (1200 pg/mL)) was 105.6% and the “Stability in extracted matrix” value ([5]; auto-sampler, up to 48 h) was “stable in extracted matrix for up to 48 h”. For the same compound, the “Fraction of tacrolimus distributed into red blood cells” value [6] was “About 85%” and the “Fraction of total TAC in blood present as free (unbound) form” value [6] was 1%.
